How the values were obtained:
Hs578T = test: Annexin V/PI binding (cell death/apoptosis), flow cytometry; type: cell-based; details: for effect of addition of cholesterol on induced death: Hs578T cells, 70 μg/ml BN107, 0.2 mg/ml BZL101 or 500 nM taxol with 500 μM cholesterol, 18 hours
Description: (§1) ERα plays a role in BN107-induced apoptosis. In Table 1-1 below are the results of experiments in which cells were treated with BN107 and harvested after 24 hours for analysis of Annexin V/PI binding. Three independent experiments were conducted for each data point.
(§2) BN107 induced apoptosis selectively in ER− breast cancer cells and introducing expression of ERα protected these cells against BN107 Prior studies have shown that ethanolic extract of G. sinensis is cytotoxic to a number tumor cell lines by inducing cytotoxicity. A wider panel of solid-tumor cell lines, derived from various origins, is analyzed herein. Sub-confluent cultures were treated with 70 μg/ml of BN107 for 18 hours and cell death were analyzed by annexinV/PI binding followed by flow cytometry. […] It is evident that BN107 induced cell death in tumor lines derived from various origins to different extent. […] These experiments sought to determine if there was correlative relationship between genotypic characteristics of the cells versus sensitivity. As shown in Table 2-1, it appeared that cells lacking ER expression were highly sensitive to BN107; while cells containing functional ER were relatively insensitive to BN107 at this dose. The death induced by BN107 in ER− lines was apoptotic in nature that was primarily mediated by the mitochondrial pathway, as evident from Annexin V binding, dissipation of mitochondrial potential, cytosolic release of cytochrome C, activation of caspases, and DNA fragmentation.
(§3) All the cell lines used were purchased from ATCC. Cells were treated with 70 μg/ml of BN107 (calculated based on freeze-dry weight). The dose is determined based on the EC50 of each batch in killing 50% of Hs578T or MDA-MB-231 cells 18 hours after treatment.
(§4) Cell survival was measured using FACS analysis of AnnexinV-alexa 488/PI bound cells following the manufacturer's instruction (Invitrogen). Mitochondrial transmembrane potential (MTP) was determined using JC-1 dye (Invitrogen) in live cells and analyzed using flow cytomery. Caspase 3 and 9 activities were measured using specific caspase peptide inhibitors (Calbiochem) conjugated to FITC followed by flow cytometry analysis. Cytosolic cytochrome C release were determined by separating the cytosol from mitochondria (Biovision) and cytochrome C released in cytosol was shown using immunoblotting.

MDA-MB-231 = test: as above; type: cell-based; details: Homo sapiens, MDA-MB-231, read-out: EC50 for MDA-MB-231
Description: as §1, §2, §3, §4

[1] = test system: phospho-mTOR, total mTOR, RAPTOR and RICTOR in LR fractions of Hs578T; test: Western blot of lipid raft fractions: mTOR complex components; type: cell-based, human; details: Hs578T cells; 70 μg/ml BN107 or 110 μM oleanolic acid, 4 hours
Description: (§5) As Akt/mTOR, the main survival signaling pathway, has been implicated to take place on LRs, it was hypothesized that BN107 and similarly OA disrupted the signaling of these complexes on LRs. The fractions collected from sucrose-density—centrifugation of BN107 or OA treated Hs578T or MCF7 lysates were dialyzed and concentrated. Same amounts of protein from LR (fractions 3-5), non-LR plasma membrane (f6), and cytosolic (f8) fractions were analyzed by Western blotting. The levels of RAPTOR, Akt, 4E-BP, p70S6 kinase were first observed in these collected fractions; and it was confirmed that they were all enriched in the LR fractions (data not shown). The levels of phospho-mTOR, total mTOR; as well as the mTORC1 and mTORC2 complex partner RAPTOR and RICTOR, respectively, were then measured in BN107 or OA treated Hs578T cells. […]
(§6) A modified procedure for density gradient centrifugation using Nycodenz from Sigma-Aldrich (St. Louis, Mo.) was used to fractionate Triton X-100-soluble and Triton X-100-insoluble membrane and cytoskeletal subdomains and complexes. […] Total of 10 fractions and control input lysate were analyzed for the distribution of proteins by Western blot. […] The fractions were dialyzed against PBS to remove the gradient sugars and concentrated using Amicon Ultra 4 centrifugal filter device (Millipore) before protein quantitation (BCA reagent, Thermo Fisher). […]

mTORC1 = mTORC1 activity by phosphorylation of 4E-BP and p70S6 kinase (Western); type: cell-based, human; details: lipid raft region of Hs578T cells; 70 μg/ml BN107 or 110 μM oleanolic acid, 4 hr
Description: as §5, §6

mTORC2 / Akt = test: Ser473-phosphorylated Akt in LR fractions as read-out for mTORC2 activity (Western); type: cell-based, human; details: Hs578T cells; 70 μg/ml BN107 or 110 μM oleanolic acid, 4 hr
Description: (§7) In addition, as the same pool of mTOR/FRAP1 polypeptide is shared between the mTORC1 and mTORC2 complex and the mTORC2 complex partner RICTOR was decreased in the lipid rafts of BN107 or OA-treated Hs578T cells, it was hypothesized that mTORC2 activity would be inhibited as well. Given the recent discovery that mTORC2 is the main kinase phosphorylating Akt at Ser473, and Akt signaling has been implicated to take place on LRs, the level of Ser473 phosphorylated Akt was analyzed in LR fractions as a read-out for mTORC2 activity. […] Conversely, addition of exogenous cholesterol restored these signaling events disrupted by BN107 or OA (FIG. 8C). […] The levels of transferrin receptor (TR) marking the non-LR plasma membrane region and GAPDH marking the cytosolic fractions were not affected in both cell lines by either BN107 or OA treatment.
as §6

[2] = test system: mTORC1/mTORC2/Akt signaling in MCF7 cells; test: Western blot of lipid raft fractions, resistant cells; type: cell-based, human
Description: as §7, §6

[3] = test system: mTOR/FRAP1, phospho-mTOR, RAPTOR, RICTOR, Akt in Hs578T cells; test: Western analysis of total cellular lysate; type: cell-based, human; details: ER− Hs578T cells (data not shown)
Excerpt: To ascertain that these signaling changes occurred at LRs indeed translated into the whole-cell level. […] Consistent with the data shown within the lipid raft fractions, levels of total mTOR/FRAP1, phospho-mTOR, RAPTOR, and RICTOR were all decreased within one hour of BN107 treatment, resulting in minimal mTORC1 and mTORC2 activities to phosphorylate 4E-BP and p70S6 kinase, and Ser473-Akt, respectively. The decrease in total protein levels of mTOR/FRAP1, RAPTOR and RICTOR occurred post-transcriptionally as the levels of their corresponding mRNAs were not modulated by BN107 or OA treatment in the sensitive ER− Hs578T cells (data not shown). […] These effects were presumably due to their cholesterol binding/stripping effect on LRs, as addition of exogenous cholesterol seemed to reverse these events (FIG. 8C).
Cell extracts, obtained by scraping cells in PBS in the presence of protein phosphatase and protease inhibitors and lysing with ice-cold RIPA buffer, were loaded on the SDS-PAGE at 25-30 μg per lane. Same amounts of proteins […] were precipitated from lipid raft fractions and loaded onto 3-7% TA gel or 4-12% Bis-Tris gels. Separated proteins were transferred onto nitrocellulose membrane (iBlot, Invitrogen) and used for probing with specific antibodies following manufacturer's instruction. Blots were reused several times after mild stripping (Restore, ThermoFisher) when necessary. […]

[4] = animals; cited from earlier work

Compound | EC50 (Hs578T; Homo sapiens, Hs-578T, read-out: EC50 for Hs578T) [µM] | effect of addition of cholesterol on induced death (Hs578T) | EC50 (MDA-MB-231) [µM] | levels of phospho-mTOR, total mTOR, RAPTOR and RICTOR in LR fractions [1] | mTORC1 activity (phosphorylation of 4E-BP and p70S6 kinase) (mTORC1) | level of Ser473-phosphorylated Akt in LR fractions (mTORC2 read-out) (mTORC2 / Akt) | total level of Akt on LRs (mTORC2 / Akt) | changes in mTORC1/mTORC2/Akt signaling on LRs [2] | mRNA levels of mTOR/FRAP1, RAPTOR and RICTOR [3] | toxicity at anti-tumor doses [4]
CC1(C)CC[C@]2(C(=O)O)CC[C@]3(C)C(=CC[C@@H]4[C@@]5(C)CC[C@H](O)C(C)(C)[C@@H]5CC[C@]43C)[C@@H]2C1 [OA, oleanolic acid] | 110 | protected cells specifically and completely | 125 | significantly decreased | greatly inhibited | decreased | no effect | None of these changes were observed | not modulated | minimal toxicity
CC(=O)O[C@H]1C(=O)[C@@]2(C)[C@H]([C@H](OC(=O)c3ccccc3)[C@]3(O)C[C@H](OC(=O)[C@H](O)[C@@H](NC(=O)c4ccccc4)c4ccccc4)C(C)=C1C3(C)C)[C@]1(OC(C)=O)CO[C@@H]1C[C@@H]2O [taxol, paclitaxel, reference compound] |  | no effect |  |  |  |  |  |  |  | 
